Assays:
5E5 (anti-MUC1) antibody = test: Antigen-antibody binding studies by surface plasmon resonance (SPR); design: species or system mouse; conditions: for Kd: SPR, 5E5 immobilised on CM5 chip, 20° C. and 7.5 pH
Description: Surface plasmon resonance (SPR) experiments were performed with a Biacore X-100 apparatus (Biacore, GE) in HBS-EP buffer solution at 7.5 pH (10 mM Hepes, 150 mM NaCl, 3 mM EDTA, with 2% DMSO and 0.05% Tween X100) at […]. This is the running buffer. The 5E5 antibody (from Abcam) was immobilised on a CM5 sensor chip (Biacore, GE) following the standard amine coupling method.^30 Briefly, the carboxymethyl dextran surface of flow cell 2 was activated by a 7 min injection of a 1:1 ratio of a 0.4 M aqueous solution of 1-ethyl-3-(3-dimethylaminopropyl) carbodiimide (EDC) and 0.1 M sulfo-N-hydroxysuccinimide. As such, the antibody was bound to the surface using various dilutions in 10 mM sodium acetate, 4.0. pH during a 7 min injection. […] The flow cell 1 was used as a reference and treated as the flow cell 2 (amine coupling method) without protein. Before use, 50 mM stock solutions of peptide ligand were diluted to the final concentration in the running buffer. Therefore, a series of different compounds were injected into the sensor chip at a flow rate of 30 μl/min for a period of 1 min followed by a dissociation period of 1 min. No regeneration was required. FIGS. 2A and 2B show the response-concentration curves obtained for the binding of glycopeptide 21 and 24, respectively, towards the 5E5 (anti-MUC1) antibody at 20° C. in SPR experiments.
The sensogram data were obtained in duplicate and processed with the Biae Evaluation X100 software (Biacore, GE). Experimental data from the affinity measurements were fitted to a specific two-site binding model using Prism software.

[1] = biological target: Glycopeptide 24 (…(GalNCOEt)APPA); test: SPR, ratio of the KD values of glycopeptides 21 and 24 for 5E5
[2] = biological target: Glycopeptide 21 (…(GalNAc)APPA); test: SPR (Biacore X-100), 5E5 immobilised on CM5 chip, glycopeptide as analyte, steady-state fit
[3] = biological target: Glycopeptide 24 (…(GalNCOEt)APPA); test: as above

| Substance | Kd (5E5 (anti-MUC1) antibody) [nM] | affinity relative to the natural glycopeptide (21) (5E5 (anti-MUC1) antibody; anti-MUC1 antibody 5E5, SPR) [times] | fold higher affinity than the natural peptide (21) [1] [times] | Kd [2] [nM] | Kd [3] [nM] |
| --- | --- | --- | --- | --- | --- |
| GGGGPAPGST(GalNAc)APPA [Glycopeptide 21, reference compound] | 540 | – | – | – | – |
| GGGGPAPGST(GalNCOEt)APPA [Glycopeptide 24] | 83 | 6.5 | – | – | – |
| mouse monoclonal anti-MUC1 5E5 antibody | – | – | 6.5 | 540 | 83 |

— patent US20260227407A1, “SYNTHETIC GLYCOPEPTIDES AND DERIVATIVES FOR THE EARLY-STAGE DETECTION OF CANCER BIOMARKERS IN MUC1-POSITIVE TUMORS” (FUNDACIÓN RIOJA SALUD, priority 2023, published 2026)
